In ChEMBL document CHEMBL1208744, “Petiolins J-M, prenylated acylphloroglucinols from Hypericum pseudopetiolatum var. kiusianum” (Bioorg Med Chem Lett, 2010):
In brackets after ≈: the same amount, converted by molar mass.

Legend:
Micrococcus luteus = experiment: Antimicrobial activity against Micrococcus luteus; format: functional
Cryptococcus neoformans = experiment: Antimicrobial activity against Cryptococcus neoformans; format: functional
[1] = tested on: Trichophyton mentagrophytes; experiment: Antimicrobial activity against Trichophyton mentagrophytes; format: functional
L1210 = experiment: Cytotoxicity against mouse L1210 cells; format: functional, cell-based
KB = experiment: Cytotoxicity against human KB cells; format: functional; settings: read-out: MIC

SMILES	MIC (Micrococcus luteus)	MIC (Cryptococcus neoformans)	MIC [1]	IC50 (L1210)	cytotoxic concentration (KB)
CC(C)=CCC[C@]1(C)Oc2c(c(O)c(C)c(O)c2C(=O)C(C)C)C[C@H]1O [PETIOLIN J]	8 µg/mL (≈ 22.1 µM)	16 µg/mL (≈ 44.1 µM)	16 µg/mL (≈ 44.1 µM)	> 10 µg/mL	> 10 µg/mL
CC(C)=CCC[C@](C)(O)[C@H]1C[C@@]2(CC=C(C)C)C(=O)C(C)(C)C(=O)C(C(=O)C(C)C)=C2O1 [PETIOLIN M]				> 10 µg/mL	> 10 µg/mL
CCC(C)C(=O)C1=C2O[C@@H]([C@@](C)(O)CCC=C(C)C)C[C@]2(CC=C(C)C)C(=O)C(C)(C)C1=O (stereo partly specified) [PETIOLIN L]				> 10 µg/mL	> 10 µg/mL
Cc1c(O)c(C(=O)C(C)C)c2c3c1OC(C)(C)[C@@H]1CC[C@@](C)(C[C@@H]31)O2 [PETIOLIN K]				> 10 µg/mL	> 10 µg/mL
